Test results reported in patent publication US11725199B2, “Lactic acid bacteria with sweetening properties and uses thereof” (DUPONT NUTRITION BIOSCIENCES APS, priority 2017, dated 2023).
Where a chain is given by its changes, count along the chain named.

Legend:
Assay in all cases: Maximal forward velocity and Km of GlcK, glucose varied (test C)
Format in all cases: biochemical
[1] = target: T1, Streptococcus thermophilus glucokinase (GlcK) of strain DGCC7710 (DSM28255, GlcK type ST1), non-mutated, SEQ ID NO: 2 (Streptococcus thermophilus, UniProt Q5M4Y5); details: DGCC7710 crude extract; glucose 0, 5, 10, 15, 20 mM; 1 mM ATP; pH 7.2; 30° C; average of three experiments
T1 construct: G-6PDH/NADP coupled assay
T1 sequence (Q5M4Y5 1-322): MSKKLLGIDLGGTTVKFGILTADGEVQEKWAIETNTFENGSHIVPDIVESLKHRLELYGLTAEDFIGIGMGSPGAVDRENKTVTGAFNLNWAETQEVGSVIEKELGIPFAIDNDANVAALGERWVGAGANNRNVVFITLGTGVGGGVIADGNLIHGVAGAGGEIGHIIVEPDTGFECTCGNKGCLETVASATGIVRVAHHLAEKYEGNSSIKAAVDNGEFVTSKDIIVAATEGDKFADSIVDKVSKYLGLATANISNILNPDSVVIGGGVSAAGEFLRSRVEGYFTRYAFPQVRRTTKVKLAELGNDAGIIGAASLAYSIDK
Procedure: The linear regression representing the inverse of the specific velocity in function of the inverse of the glucose concentration gives the inverse of the maximal forward velocity at the intersection with the Y-axis of the graphic.
A fresh overnight culture of a Streptococcus thermophilus strain in M17 containing 30 g/L lactose was obtained and used to inoculate at 1% (vol/vol) 10 ml of fresh M17 30 g/L lactose. Cells were harvested by centrifugation (6000 g, 10 min, 4° C.) at a 600 nm optical density (OD600) of 0.8+/−0.2, washed in 5 ml cold GLCK buffer (5 mM MgCl2, 10 mM K2HPO4/KH2PO4 [pH 7.2]), and resuspended in 500 μl cold GLCK buffer. EDTA-free protease inhibitors “cOmplete™” (Roche, supplier reference 04693132001) was added in GLCK buffer as described by the provider. Cells were disrupted by the addition of 100 mg glass beads (150-212 μm, Sigma G1145) to 200 μl resuspended cells and oscillation at a frequency of 30 cycles/s for 6 min in a MM200 oscillating mill (Retsch, Haan, Germany). […] Total protein content was determined by using the FLUKA Protein Quantification Kit-Rapid (ref 51254). […] The optical density at 340 nm was measured for 5 minutes by using a Synergy HT multi-detection microplate reader (BIO-TEK). […] Glucokinase activity was calculated as follows: […]

[2] = target: T2, Streptococcus thermophilus glucokinase (GlcK) variant E275K of DGCC7710, strain DSM32587 (DGCC12534), SEQ ID NO: 22 (Streptococcus thermophilus, UniProt Q5M4Y5, E275K); details: DSM32587 crude extract, glucose 0, 5, 10, 15, 20 mM, 1 mM ATP, pH 7.2, 30° C
T2 construct: G-6PDH/NADP coupled assay
T2 sequence (Q5M4Y5 1-322 E275K): T1 sequence (Q5M4Y5 1-322) with E275K
Procedure: A fresh overnight culture of a Streptococcus thermophilus strain in M17 containing 30 g/L lactose was obtained and used to inoculate at 1% (vol/vol) 10 ml of fresh M17 30 g/L lactose. Cells were harvested by centrifugation (6000 g, 10 min, 4° C.) at a 600 nm optical density (OD600) of 0.8+/−0.2, washed in 5 ml cold GLCK buffer (5 mM MgCl2, 10 mM K2HPO4/KH2PO4 [pH 7.2]), and resuspended in 500 μl cold GLCK buffer. EDTA-free protease inhibitors “cOmplete™” (Roche, supplier reference 04693132001) was added in GLCK buffer as described by the provider. Cells were disrupted by the addition of 100 mg glass beads (150-212 μm, Sigma G1145) to 200 μl resuspended cells and oscillation at a frequency of 30 cycles/s for 6 min in a MM200 oscillating mill (Retsch, Haan, Germany). […] Total protein content was determined by using the FLUKA Protein Quantification Kit-Rapid (ref 51254). The glucokinase activity in the cell extracts was determined spectrophotometrically by a glucose-6-phosphate dehydrogenase (G-6PDH, EC1.1.1.49):[…] assay (Porter et al., 1982), essentially as described by Pool et al. (2006). […] The optical density at 340 nm was measured for 5 minutes by using a Synergy HT multi-detection microplate reader (BIO-TEK). […] Glucokinase activity was calculated as follows: […]

[3] = target: T3, Streptococcus thermophilus glucokinase (GlcK) of strain ST1.1 (parent) (Streptococcus thermophilus, UniProt Q5M4Y5)
T3 construct: G-6PDH/NADP coupled assay
T3 sequence (Q5M4Y5 1-322): T1 sequence (Q5M4Y5 1-322)
Procedure: (§1) A fresh overnight culture of a Streptococcus thermophilus strain in M17 containing 30 g/L lactose was obtained and used to inoculate at 1% (vol/vol) 10 ml of fresh M17 30 g/L lactose. Cells were harvested by centrifugation (6000 g, 10 min, 4° C.) at a 600 nm optical density (OD600) of 0.8+/−0.2, washed in 5 ml cold GLCK buffer (5 mM MgCl2, 10 mM K2HPO4/KH2PO4 [pH 7.2]), and resuspended in 500 μl cold GLCK buffer. EDTA-free protease inhibitors “cOmplete™” (Roche, supplier reference 04693132001) was added in GLCK buffer as described by the provider. Cells were disrupted by the addition of 100 mg glass beads (150-212 μm, Sigma G1145) to 200 μl resuspended cells and oscillation at a frequency of 30 cycles/s for 6 min in a MM200 oscillating mill (Retsch, Haan, Germany). Cell debris and glass beads were removed by centrifugation (14000 g, 15 min, 4° C.), and supernatant transferred into a clean 1.5 mL centrifuge tube kept on ice. Total protein content was determined by using the FLUKA Protein Quantification Kit-Rapid (ref 51254). The glucokinase activity in the cell extracts was determined spectrophotometrically by a glucose-6-phosphate dehydrogenase (G-6PDH, EC1.1.1.49):[…] assay (Porter et al., 1982), essentially as described by Pool et al. (2006). […] The optical density at 340 nm was measured for 5 minutes by using a Synergy HT multi-detection microplate reader (BIO-TEK). […] Glucokinase activity was calculated as follows:
(§2) Glucokinase activity (U/g of total protein extract)=dOD×V/[dt×l×ε×Qprot], wherein: • dOD is the variation of optical density (OD) at 340 nm • V is the volume of the reaction (herein 250 μL)
(§3) Measurements were triplicated for each sample, and the glucokinase specific activity values given herein under test A are the mean of three independent experiments.
(§4) Measurements were triplicated for each sample, and the Vmax values given herein under test C are the mean of three independent experiments.
(§5) The respective mutants were called ST1.1m-glcK and ST1.2m-glcK. The GlcK sequence of these 2 mutants is as defined in SEQ ID NO:22.

[4] = target: T4, Streptococcus thermophilus glucokinase (GlcK) of strain ST1.2 (parent) (Streptococcus thermophilus, UniProt Q5M4Y5)
T4 construct: G-6PDH/NADP coupled assay
T4 sequence (Q5M4Y5 1-322): T1 sequence (Q5M4Y5 1-322)
Procedure: as §1, §2, §3, §4, §5

[5] = target: T5, Streptococcus thermophilus glucokinase (GlcK) variant E275K of ST1.1, strain ST1.1m-glcK, SEQ ID NO: 22 (Streptococcus thermophilus, UniProt Q5M4Y5, E275K)
T5 construct: G-6PDH/NADP coupled assay
T5 sequence (Q5M4Y5 1-322 E275K): T1 sequence (Q5M4Y5 1-322) with E275K
Procedure: as §1, §2, §3, §4, §5

[6] = target: T6, Streptococcus thermophilus glucokinase (GlcK) variant E275K of ST1.2, strain ST1.2m-glcK, SEQ ID NO: 22 (Streptococcus thermophilus, UniProt Q5M4Y5, E275K)
T6 construct: G-6PDH/NADP coupled assay
T6 sequence (Q5M4Y5 1-322 E275K): T1 sequence (Q5M4Y5 1-322) with E275K
Procedure: as §1, §2, §3, §4, §5

OC[C@H]1OC(O)[C@H](O)[C@@H](O)[C@@H]1O (some centres unmarked) [glucose]
Vmax Glucokinase (glucose) [1]: 2855 U/g total protein extract
Vmax Glucokinase (glucose) ([2]; average of three experiments): 914 U/g total protein extract
Km ([2]; read-out: Km Glucokinase (glucose), average): 1330 µM
Vm Glucokinase (glucose) ([3]; ST1.1, summary table): 2687
Vmax Glucokinase (glucose) ([3]; ST1.1 crude extract, glucose 0, 5, 10, 15, 20 mM, 1 mM ATP, pH 7.2, 30° C, average of three experiments): 2687 U/g total protein extract
Vm Glucokinase (glucose) ([4]; ST1.2, summary table): 2431
Vmax Glucokinase (glucose) ([4]; ST1.2 crude extract, glucose 0, 5, 10, 15, 20 mM, 1 mM ATP, pH 7.2, 30° C, average of three experiments): 2431 U/g total protein extract
Vmax Glucokinase (glucose) ([5]; ST1.1m-glcK crude extract, glucose 0, 5, 10, 15, 20 mM, 1 mM ATP, pH 7.2, 30° C, average of three experiments): 795 U/g total protein extract
Vm Glucokinase (glucose) ([5]; ST1.1m-glcK, summary table): 795
Vmax Glucokinase (glucose) ([6]; ST1.2m-glcK crude extract, glucose 0, 5, 10, 15, 20 mM, 1 mM ATP, pH 7.2, 30° C, average of three experiments): 501 U/g total protein extract
Vm Glucokinase (glucose) ([6]; ST1.2m-glcK, summary table): 501
